Measurements from the CheMixHub viscosity set.
± gives the uncertainty stated by the source.

Test: xn = mol fraction of the nth substance listed

CCCCCCn1cc[n+](C)c1.[Cl][Fe-]([Cl])([Cl])[Cl] + CCOC(C)=O
viscosity [mPa·s], 101 kPa
Conditions	x1 = 0.093	x1 = 0.1851	x1 = 0.2815	x1 = 0.377	x1 = 0.4719	x1 = 0.5799	x1 = 0.6752	x1 = 0.7764	x1 = 0.8869
293.15 K	1.14 ± 0.05	2.3 ± 0.09	4.29 ± 0.18	7.45 ± 0.31	11.71 ± 0.48	18.13 ± 0.75	26.64 ± 1.1	36.57 ± 1.5	51.89 ± 2.1
298.15 K	1.07 ± 0.04	2.11 ± 0.09	3.87 ± 0.16	6.62 ± 0.27	10.22 ± 0.42	15.53 ± 0.64	22.42 ± 0.93	30.27 ± 1.3	42.15 ± 1.8
303.15 K	1.01 ± 0.04	1.95 ± 0.08	3.51 ± 0.14	5.93 ± 0.24	9.02 ± 0.37	13.48 ± 0.56	19.08 ± 0.79	25.46 ± 1.1	34.86 ± 1.5
308.15 K	0.95 ± 0.04	1.8 ± 0.07	3.2 ± 0.13	5.34 ± 0.22	8.01 ± 0.33	11.79 ± 0.49	16.45 ± 0.68	21.68 ± 0.9	29.26 ± 1.2
313.15 K	0.89 ± 0.04	1.68 ± 0.07	2.93 ± 0.12	4.84 ± 0.2	7.18 ± 0.3	10.4 ± 0.43	14.33 ± 0.59	18.64 ± 0.77	24.83 ± 1
318.15 K	0.85 ± 0.04	1.57 ± 0.06	2.7 ± 0.11	4.42 ± 0.18	6.46 ± 0.27	9.26 ± 0.38	12.6 ± 0.52	16.23 ± 0.67	21.38 ± 0.89
323.15 K	0.8 ± 0.03	1.47 ± 0.06	2.5 ± 0.1	4.05 ± 0.17	5.85 ± 0.24	8.3 ± 0.34	11.15 ± 0.46	14.24 ± 0.59	18.51 ± 0.77

CC(O)CCO (configuration not stated) + CN1CCCC1=O
308.15 K, 101 kPa
Conditions	viscosity [mPa·s]
x1 = 0.0282	1.736 ± 0.013
x1 = 0.0582	1.864 ± 0.014
x1 = 0.1089	2.153 ± 0.017
x1 = 0.2015	2.678 ± 0.02
x1 = 0.3004	3.197 ± 0.024
x1 = 0.4043	4.211 ± 0.032
x1 = 0.4985	6.742 ± 0.049
x1 = 0.5972	9.628 ± 0.068
x1 = 0.7036	14.66 ± 0.1
x1 = 0.798	22.77 ± 0.16
x1 = 0.9029	34.77 ± 0.24
x1 = 0.94	43.52 ± 0.3
x1 = 0.9796	51.25 ± 0.29

CC(O)CCO (configuration not stated) + CN(C)C=O
308.15 K, 101 kPa
Conditions	viscosity [mPa·s]
x1 = 0.0531	0.762 ± 0.02
x1 = 0.1	0.87 ± 0.022
x1 = 0.1985	1.178 ± 0.029
x1 = 0.3069	1.688 ± 0.04
x1 = 0.4018	2.399 ± 0.056
x1 = 0.4993	3.462 ± 0.079
x1 = 0.6107	6.621 ± 0.14
x1 = 0.6844	9.795 ± 0.19
x1 = 0.7882	17.12 ± 0.31
x1 = 0.8916	28.94 ± 0.5
x1 = 0.9544	38.83 ± 0.67

c1ccncc1 + CO
298 K, 101.3 kPa
Conditions	viscosity [mPa·s]
x2 = 0.1249	0.85 ± 0.012
x2 = 0.2338	0.82 ± 0.011
x2 = 0.4192	0.763 ± 0.011
x2 = 0.5695	0.714 ± 0.01
x2 = 0.694	0.67 ± 0.009
x2 = 0.7987	0.631 ± 0.009
x2 = 0.8881	0.596 ± 0.009
x2 = 0.9652	0.565 ± 0.008

c1ccncc1 + CS(C)=O
viscosity [mPa·s], 101.3 kPa
Conditions	298.15 K	308.15 K	318.15 K
x1 = 0.041	1.859 ± 0.049	1.535 ± 0.041	1.246 ± 0.033
x1 = 0.089	1.803 ± 0.047	1.47 ± 0.039	1.191 ± 0.031
x1 = 0.18	1.6 ± 0.042	1.318 ± 0.035	1.098 ± 0.029
x1 = 0.274	1.488 ± 0.039	1.2 ± 0.032	1.042 ± 0.028
x1 = 0.369	1.38 ± 0.036	1.13 ± 0.03	0.972 ± 0.026
x1 = 0.468	1.28 ± 0.034	1.044 ± 0.028	0.922 ± 0.024
x1 = 0.569	1.185 ± 0.031	0.984 ± 0.026	0.858 ± 0.023
x1 = 0.673	1.097 ± 0.029	0.913 ± 0.024	0.795 ± 0.021
x1 = 0.779	1.029 ± 0.027	0.849 ± 0.022	0.753 ± 0.02
x1 = 0.888	0.969 ± 0.026	0.791 ± 0.021	0.723 ± 0.019
x1 = 0.943	0.975 ± 0.026	0.76 ± 0.02	0.715 ± 0.019

c1ccncc1 + Cc1ccc(C)cc1
viscosity [mPa·s], 101 kPa
Conditions	x2 = 0.0992	x2 = 0.1993	x2 = 0.2987	x2 = 0.3993	x2 = 0.4949	x2 = 0.6001	x2 = 0.6997	x2 = 0.7994	x2 = 0.8981
293.15 K	0.8699 ± 0.012	0.8193 ± 0.012	0.7862 ± 0.011	0.7311 ± 0.011	0.6964 ± 0.01	0.6582 ± 0.0098	0.6345 ± 0.0095	0.6152 ± 0.0093	0.5919 ± 0.009
303.15 K	0.7603 ± 0.011	0.7165 ± 0.01	0.6902 ± 0.01	0.6422 ± 0.0096	0.6139 ± 0.0093	0.5868 ± 0.009	0.5656 ± 0.0087	0.5475 ± 0.0085	0.5316 ± 0.0083
313.15 K	0.6704 ± 0.01	0.6302 ± 0.0095	0.6051 ± 0.0092	0.565 ± 0.0087	0.5399 ± 0.0084	0.5172 ± 0.0082	0.4986 ± 0.0079	0.4819 ± 0.0078	0.4686 ± 0.0076
323.15 K	0.5894 ± 0.009	0.5534 ± 0.0086	0.5296 ± 0.0083	0.496 ± 0.0079	0.4742 ± 0.0077	0.4548 ± 0.0075	0.4385 ± 0.0073	0.4238 ± 0.0071	0.4123 ± 0.007

c1ccncc1 + Cc1cccc(C)c1
viscosity [mPa·s], 101 kPa
Conditions	x2 = 0.1993	x2 = 0.2997	x2 = 0.3994	x2 = 0.524	x2 = 0.5987	x2 = 0.7003	x2 = 0.7968	x2 = 0.8972
293.15 K	0.8031 ± 0.012	0.7468 ± 0.011	0.7151 ± 0.01	0.6612 ± 0.0098	0.6415 ± 0.0096	0.6114 ± 0.0092	0.59 ± 0.009	0.5649 ± 0.0087
303.15 K	0.7062 ± 0.01	0.6592 ± 0.0098	0.6241 ± 0.0094	0.5859 ± 0.009	0.5687 ± 0.0088	0.547 ± 0.0085	0.5279 ± 0.0083	0.5097 ± 0.008
313.15 K	0.6189 ± 0.0094	0.5815 ± 0.0089	0.5504 ± 0.0085	0.5173 ± 0.0082	0.5023 ± 0.008	0.4843 ± 0.0078	0.4668 ± 0.0076	0.4544 ± 0.0074
323.15 K	0.5442 ± 0.0085	0.5118 ± 0.0081	0.4851 ± 0.0078	0.4563 ± 0.0075	0.4433 ± 0.0073	0.428 ± 0.0071	0.4122 ± 0.007	0.4019 ± 0.0069

c1ccncc1 + Cc1ccccc1C
viscosity [mPa·s], 101 kPa
Conditions	x2 = 0.1002	x2 = 0.2001	x2 = 0.2999	x2 = 0.3993	x2 = 0.4968	x2 = 0.6002	x2 = 0.6992	x2 = 0.7985	x2 = 0.8945
293.15 K	0.9083 ± 0.013	0.8811 ± 0.013	0.8575 ± 0.012	0.8434 ± 0.012	0.8268 ± 0.012	0.806 ± 0.012	0.7925 ± 0.011	0.7798 ± 0.011	0.7769 ± 0.011
303.15 K	0.7933 ± 0.011	0.7696 ± 0.011	0.7498 ± 0.011	0.7375 ± 0.011	0.721 ± 0.011	0.7069 ± 0.01	0.6976 ± 0.01	0.6881 ± 0.01	0.6804 ± 0.01
313.15 K	0.7 ± 0.01	0.6779 ± 0.01	0.6586 ± 0.0098	0.6456 ± 0.0097	0.63 ± 0.0095	0.6195 ± 0.0094	0.6097 ± 0.0093	0.6015 ± 0.0092	0.595 ± 0.0091
323.15 K	0.6145 ± 0.0093	0.5949 ± 0.0091	0.5776 ± 0.0089	0.5654 ± 0.0088	0.5525 ± 0.0086	0.5433 ± 0.0085	0.5347 ± 0.0084	0.528 ± 0.0083	0.5228 ± 0.0082
